Assay [1] has as its target T1, Recombinant Human CD39/ENTPD1 Protein (Homo sapiens, UniProt P49961).
T1 construct: purchased R&D System (Biotechne) 4397-EN-010
T1 sequence (P49961 38-478 limits assumed): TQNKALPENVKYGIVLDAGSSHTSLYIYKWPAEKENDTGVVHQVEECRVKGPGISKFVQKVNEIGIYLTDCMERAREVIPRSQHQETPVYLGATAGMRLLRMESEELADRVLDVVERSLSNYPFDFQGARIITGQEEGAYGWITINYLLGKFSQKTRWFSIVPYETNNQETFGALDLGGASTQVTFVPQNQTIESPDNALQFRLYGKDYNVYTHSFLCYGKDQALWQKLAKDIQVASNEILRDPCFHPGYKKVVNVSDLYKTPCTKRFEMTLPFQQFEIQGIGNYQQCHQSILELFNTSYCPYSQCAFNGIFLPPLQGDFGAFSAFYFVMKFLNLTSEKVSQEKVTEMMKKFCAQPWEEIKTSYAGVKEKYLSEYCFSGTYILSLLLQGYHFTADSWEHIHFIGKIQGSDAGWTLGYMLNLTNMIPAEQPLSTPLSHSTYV
The assay can be described thus: CD39 activity with varying substrate concentration (phosphate release, Malachite Green), fitted to substrate inhibition model. The assay is classed as biochemical. The settings on record: for Vmax: 0.02 µg/ml enzyme, 5 mM CaCl2, 30 min, room temperature; for kcat: Vmax divided by CD39 concentration; for substrate inhibition at high substrate concentrations: result in words.

Assay [2] concerns the target T1, Recombinant Human CD39/ENTPD1 Protein. Details: method as in PMID 23425137. Particulars: result in words; cited from earlier work.
Assay [3] has the same target. The assay can be described thus: Inhibition of CD39 activity by reaction products (nucleoside monophosphates), Malachite Green phosphate assay. The assay is classed as biochemical.
The mark [4] stands for this setting: compound as substrate, Haldane substrate inhibition model.
Where [5] appears, read: substrate inhibition constant, compound as substrate, Haldane substrate inhibition model.

A value given as a limit tells only on which side of the number the result lay.

As a reminder, the Km is the substrate concentration at which the rate is half of its maximum. The term Vmax denotes the rate approached at saturating substrate. One may read the kcat as the number of substrate molecules converted per active site and unit of time at saturation. One may read the IC50 as the midpoint of a concentration-inhibition curve.

On to `CSc1nc(N)c2ncn([C@@H]3O[C@H](COP(=O)(O)OP(=O)(O)O)[C@@H](O)[C@H]3O)c2n1` [2-MeS-ADP, 2-methylthio-ADP], for which, in assay [1] (setting [4]), the Michaelis-Menten constant (Km) is 9.36 µM and the Vmax was 0.021 nmol/min. In addition, in assay [1] (compound as substrate), the kcat turned out to be 17.8 s⁻¹ and the “substrate inhibition at high substrate concentrations” value (from here on “substrate inhibition”) was “no substrate inhibition”.

As for `CSc1nc(N)c2ncn([C@@H]3O[C@H](COP(=O)(O)OP(=O)(O)OP(=O)(O)O)[C@@H](O)[C@H]3O)c2n1` [2-MeS-ATP], in assay [1] (setting [4]), the Km was 5.37 µM and the Vmax came to 0.018 nmol/min. Besides, in assay [1] (compound as substrate), the kcat amounted to 15.3 s⁻¹. In addition, the Ki in assay [1] (setting [5]) turned out to be 1820 µM.

On to `CCCCSc1nc2c(N)ncnc2n1[C@@H]1O[C@H](COP(=O)(O)OP(=O)(O)O)[C@@H](O)[C@H]1O` [8-BuS-ADP], for which, in assay [2], the “hydrolysis by CD39” value is reported as “resistant to hydrolysis by CD39”.

For the molecule `CCCCSc1nc2c(N)ncnc2n1C1OC(COP(=O)(O)OP(=O)(O)OP(=O)(O)O)C(O)C1O` (centres unmarked) [8-butylthio (BuS)-ATP], in assay [2], the “hydrolysis by CD39” value is “resistant to hydrolysis by CD39”.

Consider `Nc1ncnc2c1ncn2[C@@H]1O[C@H](COP(=O)(O)OP(=O)(O)O)[C@@H](O)[C@H]1O` [ADP], for which, in assay [1] (setting [4]), the Km was found to be 5.71 µM and the Vmax is reported as 0.021 nmol/min. In addition, the kcat in assay [1] (compound as substrate) came out at 17.8 s⁻¹. For the same molecule, the Ki in assay [1] (setting [5]) turned out to be 358 µM.

As for `Nc1ncnc2c1ncn2[C@@H]1O[C@H](COP(=O)(O)OP(=O)(O)OP(=O)(O)O)[C@@H](O)[C@H]1O` [ATP], in assay [1] (setting [4]), the Km stood at 4.01 µM and the maximal velocity (Vmax) stood at 0.020 nmol/min. For the same molecule, the kcat in assay [1] (compound as substrate) came out at 17.0 s⁻¹. Moreover, the Ki in assay [1] (setting [5]) stood at 818 µM.

In the case of `Nc1nc2c(ncn2[C@@H]2O[C@H](COP(=O)(O)OP(=O)(O)O)[C@@H](O)[C@H]2O)c(=O)[nH]1` [GDP], in assay [1] (setting [4]), the Km worked out at 26.6 µM and the Vmax stood at 0.022 nmol/min. Besides, the turnover number (kcat) in assay [1] (compound as substrate) worked out at 18.7 s⁻¹. Further, the Ki in assay [1] (substrate inhibition constant as stated in text) was over 1000 µM.

On to `Nc1nc2c(ncn2[C@@H]2O[C@H](COP(=O)(O)O)[C@@H](O)[C@H]2O)c(=O)[nH]1` [GMP], for which, in assay [3] (24 μM GTP as substrate), the IC50 is about 350 µM.

`Nc1nc2c(ncn2[C@@H]2O[C@H](COP(=O)(O)OP(=O)(O)OP(=O)(O)O)[C@@H](O)[C@H]2O)c(=O)[nH]1` [GTP]: in assay [1] (setting [4]), the Km was 20.6 µM and the Vmax is 0.021 nmol/min. Besides, in assay [1] (compound as substrate), the turnover number (kcat) amounted to 17.8 s⁻¹ and the “substrate inhibition” value is given as “Substrate inhibition was seen”. The Ki in assay [1] (setting [5]) came to 680 µM.

Regarding `O=c1ccn([C@@H]2O[C@H](COP(=O)(O)OP(=O)(O)O)[C@@H](O)[C@H]2O)c(=O)[nH]1` [UDP], in assay [1] (setting [4]), the Michaelis constant (Km) was 13.3 µM and the Vmax is recorded as 0.025 nmol/min. In assay [1] (compound as substrate), the turnover number (kcat) turned out to be 21.2 s⁻¹ and the “substrate inhibition” value was “almost no substrate inhibition”.

As for `O=c1ccn([C@@H]2O[C@H](COP(=O)(O)O)[C@@H](O)[C@H]2O)c(=O)[nH]1` [UMP], in assay [3] (24 μM UTP as substrate), the 50% inhibitory concentration (IC50) was about 165 µM.

For `O=c1ccn([C@@H]2O[C@H](COP(=O)(O)OP(=O)(O)OP(=O)(O)O)[C@@H](O)[C@H]2O)c(=O)[nH]1` [UTP], in assay [1] (setting [4]), the Km amounted to 9.38 µM and the maximal velocity (Vmax) is 0.024 nmol/min. Moreover, in assay [1] (compound as substrate), the kcat came to 20.4 s⁻¹ and the “substrate inhibition” value was “weak substrate inhibition”. Moreover, the Ki in assay [1] (setting [5]) came out at 1960 µM.

The values above are taken from paper PMC10238538, “Human soluble CD39 displays substrate inhibition in a substrate-specific manner” (Scientific Reports, 2023).
